Article PMC6471591, “Preparation of Sesquiterpene Lactone Derivatives: Cytotoxic Activity and Selectivity of Action” (Molecules, 2019)
Where two headings read alike, the source gives them in different places.

How the values were obtained:
HBL100 cells [1] = experiment: Antiproliferative SRB assay (NCI protocol), 48 h; type: cell-based, human; settings: splenocyte CC50 versus HBL100 GI50
HeLa cells [2] = experiment: Antiproliferative SRB assay (NCI protocol), 48 h; type: cell-based; settings: Homo sapiens, read-out: 50% growth inhibition (GI50) ± SD, HeLa
Experimental: (§1) In vitro antiproliferative activity was evaluated using the protocol of the National Cancer Institute (NCI) after 48 h of drug exposure using the sulforhodamine B (SRB) assay. […] We cannot discard that increasing lipophilicity may well result in an increase in cytotoxicity in vitro.
(§2) The following human solid tumor cell lines were used in this study: HBL-100 (breast), HeLa (cervix), SW1573 (non-small cell lung), T-47D (breast), A549 (lung), and WiDr (colon). Cells were maintained in 25 cm^2 culture flasks in RPMI 1640 supplemented with 5% heat-inactivated fetal calf serum and 2 mM L-glutamine in a 37 °C, 5% CO2, 95% humidified air incubator. Exponentially growing cells were trypsinized and resuspended in antibiotic containing medium (100 units penicillin G and 0.1 mg of streptomycin per mL). Single-cell suspensions displaying >97% viability by trypan blue dye exclusion test were subsequently counted. After counting, dilutions were made to give the appropriate cell densities for inoculation onto 96-well microtiter plates. Cells were inoculated in a volume of 100 μL per well at densities of 20,000 (WiDr), 15,000 (T-47D and A549), and 10,000 (HeLa, SW1573, and HBL-100) cells per well, based on their doubling times.
(§3) Chemosensitivity tests were performed using the SRB assay of the NCI with slight modifications. Briefly, pure compounds were initially dissolved in DMSO at 400 times the desired final maximum test concentration. Control cells were exposed to an equivalent concentration of DMSO (0.25% v/v, negative control). Each agent was tested in triplicate at different dilutions in the range 1–100 μM. Drug treatment started on day 1 after plating. Drug incubation periods were 48 h, after which cells were precipitated with 25 μL of ice-cold 50% (w/v) trichloroacetic acid and fixed for 60 min at 4 °C. Then, the SRB assay was performed. Optical density (OD) of each well was measured at 492 nm, using BioTek’s PowerWave XS Absorbance Microplate Reader (Highland Park, Winooski, VT, USA). Values were corrected for background OD from wells containing only culture medium. The percentage growth (PG) was calculated with respect to untreated control cells (C) at each level of drug concentrations based on the difference in OD at the start time (T0) and at the end of drug exposure (T), according to NCI formulas. Therefore, if T is greater than or equal to T0, the calculation is 100 × [(T–T0)/(C–T0)]. If T is lower than T0, denoting cell death, the calculation is 100 × [(T–T0)/(T0)]. The effect is defined as the growth percentage, where 50% growth inhibition (GI50) represents the concentration at which PG is +50. Based on these calculations, a PG value of 0 corresponds to the number of cells present at the beginning of drug exposure, while negative PG values denote net cell death.

HBL100 cells [3] = experiment: Antiproliferative SRB assay (NCI protocol), 48 h; type: cell-based; settings: Homo sapiens, read-out: 50% growth inhibition (GI50) ± SD, HBL100
Experimental: as §1, §2, §3

A549 cells [4] = experiment: Antiproliferative SRB assay (NCI protocol), 48 h; type: cell-based; settings: Homo sapiens, read-out: 50% growth inhibition (GI50) ± SD, A549
Experimental: as §1, §2, §3

HeLa cells [5] = experiment: Antiproliferative SRB assay (NCI protocol), 48 h; type: cell-based, human; settings: splenocyte CC50 versus HeLa GI50
A549 cells [6] = experiment: Antiproliferative SRB assay (NCI protocol), 48 h; type: cell-based, human; settings: splenocyte CC50 versus A549 GI50
WiDr cells = experiment: Antiproliferative SRB assay (NCI protocol), 48 h; type: cell-based, human; settings: for GI50: Homo sapiens, read-out: 50% growth inhibition (GI50) ± SD, WiDr; for Selectivity Index, WiDr: splenocyte CC50 versus WiDr GI50
Experimental: as §1, §2, §3

T47-D cells = experiment: Antiproliferative SRB assay (NCI protocol), 48 h; type: cell-based, human; settings: for GI50: Homo sapiens, T47D, read-out: 50% growth inhibition (GI50) ± SD, T47-D; for Selectivity Index, T47-D: splenocyte CC50 versus T47-D GI50
Experimental: as §1, §2, §3

SW1573 cells = experiment: Antiproliferative SRB assay (NCI protocol), 48 h; type: cell-based, human; settings: for GI50: Homo sapiens, read-out: 50% growth inhibition (GI50) ± SD, SW1573; for Selectivity Index, SW1573: splenocyte CC50 versus SW1573 GI50
Experimental: as §1, §2, §3

[7] = Cytotoxicity on primary cell culture (propidium iodide, flow cytometry); type: cell-based
Experimental: The cytotoxicity of the sesquiterpene lactones and its derivatives was evaluated using mouse splenocytes. […] Cumanin derivatives (4–11) have shown CC50 values and selectivity indexes higher than natural compound 1. […] The incorporation of two triazole groups in cumanin (1) reduced cytotoxicity on normal cells and improved selectivity against tumor cell lines.
In a 96-well plate, spleen cells from Balb/c mouse (1.5 × 10^5) were incubated with different drug dilutions (200, 100, 50, 10, and 5 μg/mL) in RPMI medium containing 10% fetal calf serum. After 48 h of incubation at 37 °C (5% CO2), cells were harvested, washed once with PBS, and stained with 2.5 μg/mL propidium iodide (PI) for 5 min at room temperature. Subsequently, cell death was assessed by flow cytometry using a BD FACSaria II cytometer. Cells incubated only with a drug vehicle were used as a 100% viability control and death percentage was calculated according to the following formula: Death(%)=[1−(%PI^−cells)drug−treated/(%PI^−cells)100% viability control]×100.
Then the concentration capable of causing cell death in 50% of splenocytes (CC50) was determined using a non-linear regression approach.

[8] = tested on: human solid tumor cell lines (A549, HBL-100, HeLa, SW1573, T-47D, WiDr); experiment: Antiproliferative SRB assay, whole panel of tumor cell lines; type: cell-based; settings: tumor cell line panel, compared to cumanin (1)
Experimental: as §1, §2, §3

[9] = HeLa (cervix), SRB, 48 h drug exposure
[10] = HBL-100, HBL100 (breast), SRB, 48 h drug exposure
[11] = A549 (lung), SRB, 48 h drug exposure
[12] = WiDr (colon), SRB, 48 h drug exposure
[13] = T47-D (breast), SRB, 48 h drug exposure
[14] = SW1573 (non-small cell lung), SRB, 48 h drug exposure
[15] = Balb/c mouse spleen cells, 48 h incubation, PI staining, read-out: CC50 ± SD, splenocytes (concentration that causes 50% cell death)

Structure (SMILES) | Selectivity Index, HBL100 (HBL100 cells [1]) | GI50 (HeLa cells [2]; [9]) | GI50 (HBL100 cells [3]; [10]) | GI50 (A549 cells [4]; [11]) | Selectivity Index, HeLa (HeLa cells [5]) | Selectivity Index, A549 (A549 cells [6]) | GI50 (WiDr cells; [12]) | Selectivity Index, WiDr (WiDr cells) | GI50 (T47-D cells; [13]) | Selectivity Index, T47-D (T47-D cells) | GI50 (SW1573 cells; [14]) | Selectivity Index, SW1573 (SW1573 cells) | also measured
C=C1C(=O)OC2CC(C)C3CC(O)C(O)C3(C)CC12 (centres unmarked) [Compound 1, cumanin] | 1.4 | 19 µM | 21 µM | 19 µM | 1.5 | 1.5 | 36 µM | 0.8 | 30 µM | 1.0 | 14 µM | 2.1 | –
C=C1C(=O)O[C@@H]2C[C@@H](C)[C@@H]3C=CC(=O)[C@@]3(C)[C@@H](O)[C@H]12 [Compound 2, helenalin] | 0.4 | – | – | – | 0.7 | 0.5 | – | 0.4 | – | 0.4 | – | 0.5 | GI50 (HeLa cells [2]; HeLa, 48 h): 1.7 µM; GI50 (HBL100 cells [3]; HBL-100, 48 h): 2.8 µM; GI50 (A549 cells [4]; A549, 48 h): 2.3 µM; CC50 at 48 h [7, 15]: 1.2 µM; GI50 (WiDr cells; WiDr, 48 h): 2.7 µM; GI50 (T47-D cells; 48 h): 2.9 µM; GI50 (SW1573 cells; SW1573, 48 h): 2.2 µM
C=C1C(=O)O[C@@H]2[C@H]1CC[C@H](C)[C@@]1(O)C=CC(=O)[C@@]21C [Compound 3, hymenin] | 0.3 | 14 µM | 17 µM | 9.7 µM | 0.3 | 0.4 | 18 µM | 0.2 | 20 µM | 0.2 | 6.4 µM | 0.7 | CC50 at 48 h ([7]; Balb/c, mouse): 4.4 µM
C=C1C(=O)O[C@@H]2C[C@H](C)[C@@H]3C[C@H](OC(C)=O)[C@H](OC(C)=O)[C@@]3(C)C[C@H]12 [Compound 4] | 10.5 | 16 µM | 23 µM | 24 µM | 15.0 | 10.0 | 27 µM | 8.9 | 26 µM | 9.3 | 11 µM | 21.9 | antiproliferative activity in words [8]: moderate activity
C=C1C(=O)O[C@@H]2C[C@H](C)[C@@H]3C[C@H](O[Si](C)(C)C)[C@H](O[Si](C)(C)C)[C@@]3(C)C[C@H]12 [Compound 5] | 18.4 | 2.9 µM | 3.6 µM | 2.4 µM | 22.9 | 27.7 | 2.2 µM | 30.2 | 1.9 µM | 34.9 | 1.8 µM | 36.9 | –
C=C1C(=O)O[C@@H]2C[C@H](C)[C@@H]3C[C@H](O[Si](C)(C)C(C)C)[C@H](O[Si](C)(C)C(C)C)[C@@]3(C)C[C@H]12 [Compound 6] | 39.9 | 1.3 µM | 2.3 µM | 1.2 µM | 70.6 | 76.5 | 2.4 µM | 38.2 | 2.2 µM | 41.7 | 1.2 µM | 76.5 | CC50 at 48 h ([7]; Balb/c, mouse): 91.8 µM
C=C1C(=O)O[C@@H]2C[C@H](C)[C@@H]3C[C@H](O[Si](c4ccccc4)(c4ccccc4)C(C)(C)C)[C@H](O)[C@@]3(C)C[C@H]12 [Compound 7] | 38.6 | 2 µM | 3.7 µM | 1.6 µM | 71.3 | 89.2 | 3.1 µM | 46.0 | 3.4 µM | 42.0 | 1.5 µM | 95.1 | –
C#CCOC1CC2C(C)CC3OC(=O)C(=C)C3CC2(C)C1O (centres unmarked) [Compound 8] | 10.6 | 19 µM | 17 µM | 18 µM | 9.5 | 10.0 | 7.2 µM | 25.1 | 24 µM | 7.5 | 28 µM | 6.4 | antiproliferative activity in words [8]: moderate activity
C=C1C(=O)OC2CC(C)C3CC(OCc4cn(Cc5ccccc5)nn4)C(OCc4cn(Cc5ccccc5)nn4)C3(C)CC12 (centres unmarked) [Compound 11] | 81.9 | 5.9 µM | 6.4 µM | 3.7 µM | 88.8 | 141.6 | 2.3 µM | 227.9 | 9.7 µM | 54.0 | 4.7 µM | 111.5 | CC50 at 48 h ([7]; primary mouse splenocytes (spleen cells), Balb/c mouse spleen cells, 48 h incubation, PI staining, read-out: CC50 ± SD, splenocytes (concentration that causes 50% cell death)): 524 µM
C=C1C(=O)O[C@@H]2C[C@@H](C)[C@@H]3C=CC(=O)[C@@]3(C)[C@@H](OC(C)=O)[C@H]12 [Compound 12] | 0.1 | – | 3.6 µM | – | – | – | – | – | 1.6 µM | 0.2 | 4.7 µM | 0.1 | CC50 [7, 15]: 0.4 µM
C=C1C(=O)O[C@@H]2[C@H]1CC[C@H](C)[C@@]1(O[Si](C)(C)C)C=CC(=O)[C@@]21C [Compound 15] | 0.5 | 3.3 µM | 4.6 µM | 3.4 µM | 0.7 | 0.7 | 6.8 µM | 0.3 | 4.2 µM | 0.5 | 2.4 µM | 0.9 | CC50 at 48 h ([7]; Balb/c, mouse): 2.3 µM
